According to US20240115654A1, “INTRAVENOUS ADMINISTRATION OF ENGINEERED ANTIMICROBIAL AMPHIPHILIC PEPTIDES” (priority 2021, published 2024):
Peptide text beside a SMILES is read from it.

Test: clinical
Settings: human, plasma, iv, Plasma Concentration by Nominal Time from Start of Infusion; for level at 0.5 h: 0.50 h
[1] = 0.05 mg/kg, Cohort 1, 0.05 mg/kg IV 1-hr infusion, individual subject
[2] = 0.05 mg/kg, Cohort 1, 0.05 mg/kg IV 1 hr infusion, individual subjects
[3] = 0.05 mg/kg, Mean, Cohort 1, 0.05 mg/kg IV 1-hr infusion, cohort mean
[4] = 0.05 mg/kg, Mean, Cohort 1, 0.05 mg/kg IV 1 hr infusion, cohort mean N 6
[5] = 0.5 mg/kg, Mean, Cohort 4, 0.5 mg/kg IV 2-hr infusion, cohort mean
[6] = 0.5 mg/kg, Mean, Cohort 4, 0.5 mg/kg IV, infusion 2 hours, cohort mean N 6
[7] = 1 mg/kg, Mean, Cohort 5, 1 mg/kg IV 4-hr infusion, cohort mean
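Also: phase 1 study in human subjects given one IV dose of the peptide, enrolled in sequential ascending-dose cohorts and randomized to peptide or placebo.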

Question: Which level at 0 h [1] does the source give for CC(C)[C@H](NC(=O)[C@H](Cc1c[nH]c2ccccc12)NC(=O)[C@H](CCCNC(=N)N)NC(=O)[C@H](CCCNC(=N)N)NC(=O)[C@@H](NC(=O)[C@@H](NC(=O)[C@H](CCCNC(=N)N)NC(=O)[C@@H](NC(=O)[C@@H](NC(=O)[C@H](CCCNC(=N)N)NC(=O)[C@H](CCCNC(=N)N)NC(=O)[C@H](Cc1c[nH]c2ccccc12)NC(=O)[C@@H](NC(=O)[C@H](CCCNC(=N)N)NC(=O)[C@H](CCCNC(=N)N)NC(=O)[C@@H](NC(=O)[C@H](CCCNC(=N)N)NC(=O)[C@H](CCCNC(=N)N)NC(=O)[C@@H](NC(=O)[C@H](Cc1c[nH]c2ccccc12)NC(=O)[C@H](CCCNC(=N)N)NC(=O)[C@@H](N)CCCNC(=N)N)C(C)C)C(C)C)C(C)C)C(C)C)C(C)C)C(C)C)C(C)C)C(=O)N[C@@H](CCCNC(=N)N)C(=O)N[C@@H](CCCNC(=N)N)C(N)=O [SEQ ID NO: 1] (H-RRWVRRVRRVWRRVVRVVRRWVRR-NH2) here?
Answer: 6.03 ng/mL

Question: And the level at 0.5 h [1]?
Answer: 166 ng/mL

Question: What about the level at 21 h [1] of the same compound?
Answer: 12.6 ng/mL

Question: And the level at 37 h [1]?
Answer: 6.59 ng/mL

Question: And the level at 0 h [2]?
Answer: 6.03 ng/mL

Question: And the level at 0.5 h [2]?
Answer: 166 ng/mL

Question: What about the level at 21 h [2] of the same compound?
Answer: 12.6 ng/mL

Question: And the level at 37 h [2]?
Answer: 6.59 ng/mL

Question: What about the level at 0 h [3] of the same compound?
Answer: 1.01 ng/mL

Question: What about the level at 0.5 h [3] of the same compound?
Answer: 189 ng/mL

Question: And the level at 1 h [3]?
Answer: 256 ng/mL

Question: What about the level at 2 h [3] of the same compound?
Answer: 108 ng/mL

Question: And the level at 3 h [3]?
Answer: 96.4 ng/mL

Question: What about the level at 5 h [3] of the same compound?
Answer: 79.5 ng/mL

Question: And the level at 7 h [3]?
Answer: 62.5 ng/mL

Question: And the level at 9 h [3]?
Answer: 56.9 ng/mL

Question: And the level at 13 h [3]?
Answer: 31.5 ng/mL

Question: And the level at 21 h [3]?
Answer: 15.4 ng/mL

Question: And the level at 25 h [3]?
Answer: 14.8 ng/mL

Question: What about the level at 37 h [3] of the same compound?
Answer: 1.1 ng/mL

Question: And the level at […] [3]?
Answer: 134 ng/mL

Question: And the level at 0 h [4]?
Answer: 1.01 ng/mL

Question: What about the level at 0.5 h [4] of the same compound?
Answer: 189 ng/mL

Question: What about the level at 1 h [4] of the same compound?
Answer: 256 ng/mL

Question: What about the level at 2 h [4] of the same compound?
Answer: 108 ng/mL

Question: And the level at 3 h [4]?
Answer: 96.4 ng/mL

Question: What about the level at 5 h [4] of the same compound?
Answer: 79.5 ng/mL

Question: And the level at 7 h [4]?
Answer: 62.5 ng/mL

Question: What about the level at 9 h [4] of the same compound?
Answer: 56.9 ng/mL

Question: And the level at 13 h [4]?
Answer: 31.5 ng/mL

Question: What about the level at 21 h [4] of the same compound?
Answer: 15.4 ng/mL

Question: And the level at 25 h [4]?
Answer: 14.8 ng/mL

Question: And the level at 37 h [4]?
Answer: 1.1 ng/mL

Question: What about the level at […] [4] of the same compound?
Answer: 134 ng/mL

Question: What about the level at 50 h (0.5 mg/kg, Cohort 4, 0.5 mg/kg IV 2-hr infusion, individual subject) of the same compound?
Answer: 45.9 ng/mL

Question: And the level at 1 h [5]?
Answer: 1210 ng/mL

Question: And the level at 2 h [5]?
Answer: 1830 ng/mL

Question: And the level at 3 h [5]?
Answer: 616 ng/mL

Question: What about the level at 4 h [5] of the same compound?
Answer: 451 ng/mL

Question: What about the level at 6 h [5] of the same compound?
Answer: 330 ng/mL

Question: And the level at 8 h [5]?
Answer: 249 ng/mL

Question: And the level at 10 h [5]?
Answer: 219 ng/mL

Question: And the level at 14 h [5]?
Answer: 134 ng/mL

Question: And the level at 22 h [5]?
Answer: 76.3 ng/mL

Question: And the level at 26 h [5]?
Answer: 72.5 ng/mL

Question: And the level at 38 h [5]?
Answer: 41.2 ng/mL

Question: What about the level at 50 h [5] of the same compound?
Answer: 25.7 ng/mL

Question: What about the level at […] [5] of the same compound?
Answer: 877 ng/mL

Question: And the level at 1 h [6]?
Answer: 1210 ng/mL

Question: And the level at 2 h [6]?
Answer: 1830 ng/mL

Question: What about the level at 3 h [6] of the same compound?
Answer: 616 ng/mL

Question: And the level at 4 h [6]?
Answer: 451 ng/mL

Question: What about the level at 6 h [6] of the same compound?
Answer: 330 ng/mL

Question: What about the level at 8 h [6] of the same compound?
Answer: 249 ng/mL

Question: And the level at 10 h [6]?
Answer: 219 ng/mL

Question: And the level at 14 h [6]?
Answer: 134 ng/mL

Question: What about the level at 22 h [6] of the same compound?
Answer: 76.3 ng/mL

Question: And the level at 26 h [6]?
Answer: 72.5 ng/mL

Question: What about the level at 38 h [6] of the same compound?
Answer: 41.2 ng/mL

Question: What about the level at 50 h [6] of the same compound?
Answer: 25.7 ng/mL

Question: What about the level at […] [6] of the same compound?
Answer: 877 ng/mL

Question: And the level at 2 h [7]?
Answer: 2040 ng/mL

Question: And the level at 4 h [7]?
Answer: 2650 ng/mL

Question: And the level at 5 h [7]?
Answer: 1350 ng/mL

Question: And the level at 6 h [7]?
Answer: 1130 ng/mL

Question: What about the level at 8 h [7] of the same compound?
Answer: 803 ng/mL

Question: What about the level at 10 h [7] of the same compound?
Answer: 604 ng/mL

Question: And the level at 12 h (1 mg/kg, Mean, Cohort 5, 1 mg/kg IV 4-hr infusion, 12 h, cohort mean)?
Answer: 487 ng/mL

Question: What about the level at 16 h (1 mg/kg, Mean, Cohort 5, 1 mg/kg IV 4-hr infusion, 16 h, cohort mean) of the same compound?
Answer: 287 ng/mL

Question: And the level at 24 h (1 mg/kg, Mean, Cohort 5, 1 mg/kg IV 4-hr infusion, 24 h, cohort mean)?
Answer: 167 ng/mL

Question: And the level at 28 h (1 mg/kg, Mean, Cohort 5, 1 mg/kg IV 4-hr infusion, 28 h, cohort mean)?
Answer: 180 ng/mL

Question: What about the level at 40 h (1 mg/kg, Mean, Cohort 5, 1 mg/kg IV 4-hr infusion, 40 h, cohort mean) of the same compound?
Answer: 98.7 ng/mL

Question: And the level at 52 h (1 mg/kg, Mean, Cohort 5, 1 mg/kg IV 4-hr infusion, 52 h, cohort mean)?
Answer: 99.6 ng/mL

Question: What about the level at […] [7] of the same compound?
Answer: 1810 ng/mL
